Measured values from ChEMBL document CHEMBL4507276 (2021).

Tests used:
[1] = system: Tyrosine-protein kinase ABL1 (Homo sapiens), P00519 [Y253F]; settings: Compound concentration 1000.0 nM
[2] = biological target: Death-associated protein kinase 1 (Homo sapiens) (UniProt P53355); settings: Compound concentration 1000.0 nM
[3] = biological target: Ankyrin repeat and protein kinase domain-containing protein 1 (Homo sapiens) (UniProt Q8NFD2); settings: Compound concentration 1000.0 nM
[4] = biological target: T1, Serine/threonine-protein kinase haspin (Homo sapiens) (UniProt Q8TF76); settings: Compound concentration 1000.0 nM
T1 sequence (whole entry): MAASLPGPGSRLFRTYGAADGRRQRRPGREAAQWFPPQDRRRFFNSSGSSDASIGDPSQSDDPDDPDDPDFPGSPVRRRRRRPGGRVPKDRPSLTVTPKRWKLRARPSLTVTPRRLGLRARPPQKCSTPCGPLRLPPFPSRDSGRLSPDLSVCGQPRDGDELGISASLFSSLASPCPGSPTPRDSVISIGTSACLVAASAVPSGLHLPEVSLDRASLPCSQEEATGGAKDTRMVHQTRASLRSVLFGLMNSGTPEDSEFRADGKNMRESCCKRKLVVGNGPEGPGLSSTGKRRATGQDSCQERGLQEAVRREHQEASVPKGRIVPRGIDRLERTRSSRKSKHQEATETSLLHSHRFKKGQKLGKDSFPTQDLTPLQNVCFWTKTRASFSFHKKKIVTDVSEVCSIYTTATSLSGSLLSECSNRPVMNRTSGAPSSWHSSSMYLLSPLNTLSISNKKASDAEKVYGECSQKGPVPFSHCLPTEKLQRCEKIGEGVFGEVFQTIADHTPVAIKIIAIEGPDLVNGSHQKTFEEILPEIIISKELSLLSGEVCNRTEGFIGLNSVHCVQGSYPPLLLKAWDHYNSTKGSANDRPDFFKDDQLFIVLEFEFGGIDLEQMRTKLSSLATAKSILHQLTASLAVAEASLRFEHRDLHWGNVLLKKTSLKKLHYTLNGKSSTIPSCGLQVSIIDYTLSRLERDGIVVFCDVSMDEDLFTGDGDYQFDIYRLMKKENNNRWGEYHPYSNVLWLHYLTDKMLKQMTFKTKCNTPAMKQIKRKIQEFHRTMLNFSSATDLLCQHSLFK

[5] = biological target: Rho-associated protein kinase 1 (Homo sapiens) (UniProt Q13464); settings: Compound concentration 1000.0 nM
Rho-associated protein kinase 1 (Homo sapiens), sequence (Q13464 2-1354 limits assumed): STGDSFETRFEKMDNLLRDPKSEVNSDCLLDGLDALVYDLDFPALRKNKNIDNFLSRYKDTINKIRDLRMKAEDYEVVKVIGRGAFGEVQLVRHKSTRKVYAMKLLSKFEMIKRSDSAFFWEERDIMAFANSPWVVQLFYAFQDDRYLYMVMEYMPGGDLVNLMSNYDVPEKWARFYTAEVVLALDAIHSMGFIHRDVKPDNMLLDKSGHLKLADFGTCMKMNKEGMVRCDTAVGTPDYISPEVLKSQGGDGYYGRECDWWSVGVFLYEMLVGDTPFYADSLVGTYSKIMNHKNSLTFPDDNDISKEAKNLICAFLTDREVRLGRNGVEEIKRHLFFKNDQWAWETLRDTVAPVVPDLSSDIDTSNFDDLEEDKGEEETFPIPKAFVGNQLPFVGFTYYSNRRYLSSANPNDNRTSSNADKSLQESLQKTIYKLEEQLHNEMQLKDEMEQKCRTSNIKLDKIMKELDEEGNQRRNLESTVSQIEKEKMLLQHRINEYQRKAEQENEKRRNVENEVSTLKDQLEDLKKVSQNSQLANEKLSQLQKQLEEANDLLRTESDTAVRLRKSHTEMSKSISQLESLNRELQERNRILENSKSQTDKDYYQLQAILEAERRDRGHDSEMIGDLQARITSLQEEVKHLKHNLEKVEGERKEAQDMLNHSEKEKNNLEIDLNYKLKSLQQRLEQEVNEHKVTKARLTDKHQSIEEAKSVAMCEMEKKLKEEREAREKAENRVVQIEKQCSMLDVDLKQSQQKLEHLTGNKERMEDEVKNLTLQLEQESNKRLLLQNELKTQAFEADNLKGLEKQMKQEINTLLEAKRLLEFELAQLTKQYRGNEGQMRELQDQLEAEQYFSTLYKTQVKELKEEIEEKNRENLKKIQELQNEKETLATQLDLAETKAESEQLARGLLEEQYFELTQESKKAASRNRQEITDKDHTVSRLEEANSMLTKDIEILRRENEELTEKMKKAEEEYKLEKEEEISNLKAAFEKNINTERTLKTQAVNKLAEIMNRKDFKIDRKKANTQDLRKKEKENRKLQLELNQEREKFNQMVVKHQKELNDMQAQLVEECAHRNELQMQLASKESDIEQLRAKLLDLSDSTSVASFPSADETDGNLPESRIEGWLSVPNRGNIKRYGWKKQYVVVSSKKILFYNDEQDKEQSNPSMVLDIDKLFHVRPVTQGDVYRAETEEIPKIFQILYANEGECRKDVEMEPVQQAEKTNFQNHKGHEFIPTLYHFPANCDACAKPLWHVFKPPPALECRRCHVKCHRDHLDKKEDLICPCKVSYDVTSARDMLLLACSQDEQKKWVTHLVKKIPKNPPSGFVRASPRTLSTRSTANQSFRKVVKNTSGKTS

[6] = biological target: T2, Dual specificity mitogen-activated protein kinase kinase 6 (Homo sapiens) (UniProt P52564); settings: Compound concentration 1000.0 nM
T2 sequence (whole entry): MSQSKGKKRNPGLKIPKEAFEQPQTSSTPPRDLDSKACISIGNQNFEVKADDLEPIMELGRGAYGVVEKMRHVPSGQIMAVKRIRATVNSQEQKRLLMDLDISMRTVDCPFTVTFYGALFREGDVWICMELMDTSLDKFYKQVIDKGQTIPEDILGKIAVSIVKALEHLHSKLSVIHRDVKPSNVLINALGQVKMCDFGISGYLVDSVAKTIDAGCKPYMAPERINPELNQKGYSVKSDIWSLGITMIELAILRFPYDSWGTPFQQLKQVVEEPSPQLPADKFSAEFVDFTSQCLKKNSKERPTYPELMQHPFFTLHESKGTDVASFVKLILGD

[7] = biological target: T3, Tyrosine-protein kinase ITK/TSK (Homo sapiens) (UniProt Q08881); settings: Compound concentration 1000.0 nM
T3 sequence (whole entry): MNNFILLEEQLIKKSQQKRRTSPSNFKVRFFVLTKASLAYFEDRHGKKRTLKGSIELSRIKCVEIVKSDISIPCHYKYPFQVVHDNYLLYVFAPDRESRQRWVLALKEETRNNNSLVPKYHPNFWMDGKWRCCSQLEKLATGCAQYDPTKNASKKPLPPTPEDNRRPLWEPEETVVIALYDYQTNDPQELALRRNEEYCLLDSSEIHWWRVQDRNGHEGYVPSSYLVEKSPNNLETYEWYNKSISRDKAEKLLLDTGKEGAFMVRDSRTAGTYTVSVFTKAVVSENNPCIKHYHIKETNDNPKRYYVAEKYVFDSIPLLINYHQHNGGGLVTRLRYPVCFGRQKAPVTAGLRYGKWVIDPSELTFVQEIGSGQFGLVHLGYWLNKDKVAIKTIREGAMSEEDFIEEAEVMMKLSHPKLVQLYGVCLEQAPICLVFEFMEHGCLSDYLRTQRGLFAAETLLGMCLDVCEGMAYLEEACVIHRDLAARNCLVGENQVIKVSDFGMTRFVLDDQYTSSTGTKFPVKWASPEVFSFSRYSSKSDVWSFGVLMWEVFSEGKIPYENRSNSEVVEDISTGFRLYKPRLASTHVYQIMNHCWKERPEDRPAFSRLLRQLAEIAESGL

[8] = biological target: Phosphorylase b kinase gamma catalytic chain, skeletal muscle/heart isoform (Homo sapiens) (UniProt Q16816); settings: Compound concentration 1000.0 nM
Phosphorylase b kinase gamma catalytic chain, skeletal muscle/heart isoform (Homo sapiens), sequence (Q16816 whole entry, looked up, canonical isoform): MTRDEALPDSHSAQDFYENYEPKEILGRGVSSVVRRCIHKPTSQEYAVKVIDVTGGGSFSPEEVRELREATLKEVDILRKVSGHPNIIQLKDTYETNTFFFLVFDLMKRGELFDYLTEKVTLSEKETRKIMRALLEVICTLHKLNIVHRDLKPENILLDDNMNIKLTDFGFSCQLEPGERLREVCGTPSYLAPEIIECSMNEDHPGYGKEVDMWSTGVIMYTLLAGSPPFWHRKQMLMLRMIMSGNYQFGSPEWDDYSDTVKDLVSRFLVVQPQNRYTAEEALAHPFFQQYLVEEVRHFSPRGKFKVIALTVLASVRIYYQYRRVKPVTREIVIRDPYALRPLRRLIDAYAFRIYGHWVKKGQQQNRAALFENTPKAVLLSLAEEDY

[9] = biological target: T4, 5-hydroxytryptamine receptor 2C (Homo sapiens) (UniProt P28335); settings: Compound concentration 10.0 uM
T4 sequence (whole entry): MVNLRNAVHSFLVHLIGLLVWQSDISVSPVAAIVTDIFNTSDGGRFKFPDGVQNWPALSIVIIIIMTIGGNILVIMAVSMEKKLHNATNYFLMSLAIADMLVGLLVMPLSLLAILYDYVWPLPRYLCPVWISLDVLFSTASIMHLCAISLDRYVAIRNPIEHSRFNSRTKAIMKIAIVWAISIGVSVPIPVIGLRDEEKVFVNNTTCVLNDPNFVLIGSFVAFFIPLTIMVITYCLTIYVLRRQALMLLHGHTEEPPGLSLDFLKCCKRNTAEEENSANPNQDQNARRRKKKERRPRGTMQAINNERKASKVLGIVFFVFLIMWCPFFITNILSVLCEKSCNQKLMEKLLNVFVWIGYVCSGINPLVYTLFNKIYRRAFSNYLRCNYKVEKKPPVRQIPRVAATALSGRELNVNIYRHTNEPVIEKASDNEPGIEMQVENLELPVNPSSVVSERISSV

Death-associated protein kinase 1 (Homo sapiens), sequence (P53355 whole entry, looked up, the tested form may be a part): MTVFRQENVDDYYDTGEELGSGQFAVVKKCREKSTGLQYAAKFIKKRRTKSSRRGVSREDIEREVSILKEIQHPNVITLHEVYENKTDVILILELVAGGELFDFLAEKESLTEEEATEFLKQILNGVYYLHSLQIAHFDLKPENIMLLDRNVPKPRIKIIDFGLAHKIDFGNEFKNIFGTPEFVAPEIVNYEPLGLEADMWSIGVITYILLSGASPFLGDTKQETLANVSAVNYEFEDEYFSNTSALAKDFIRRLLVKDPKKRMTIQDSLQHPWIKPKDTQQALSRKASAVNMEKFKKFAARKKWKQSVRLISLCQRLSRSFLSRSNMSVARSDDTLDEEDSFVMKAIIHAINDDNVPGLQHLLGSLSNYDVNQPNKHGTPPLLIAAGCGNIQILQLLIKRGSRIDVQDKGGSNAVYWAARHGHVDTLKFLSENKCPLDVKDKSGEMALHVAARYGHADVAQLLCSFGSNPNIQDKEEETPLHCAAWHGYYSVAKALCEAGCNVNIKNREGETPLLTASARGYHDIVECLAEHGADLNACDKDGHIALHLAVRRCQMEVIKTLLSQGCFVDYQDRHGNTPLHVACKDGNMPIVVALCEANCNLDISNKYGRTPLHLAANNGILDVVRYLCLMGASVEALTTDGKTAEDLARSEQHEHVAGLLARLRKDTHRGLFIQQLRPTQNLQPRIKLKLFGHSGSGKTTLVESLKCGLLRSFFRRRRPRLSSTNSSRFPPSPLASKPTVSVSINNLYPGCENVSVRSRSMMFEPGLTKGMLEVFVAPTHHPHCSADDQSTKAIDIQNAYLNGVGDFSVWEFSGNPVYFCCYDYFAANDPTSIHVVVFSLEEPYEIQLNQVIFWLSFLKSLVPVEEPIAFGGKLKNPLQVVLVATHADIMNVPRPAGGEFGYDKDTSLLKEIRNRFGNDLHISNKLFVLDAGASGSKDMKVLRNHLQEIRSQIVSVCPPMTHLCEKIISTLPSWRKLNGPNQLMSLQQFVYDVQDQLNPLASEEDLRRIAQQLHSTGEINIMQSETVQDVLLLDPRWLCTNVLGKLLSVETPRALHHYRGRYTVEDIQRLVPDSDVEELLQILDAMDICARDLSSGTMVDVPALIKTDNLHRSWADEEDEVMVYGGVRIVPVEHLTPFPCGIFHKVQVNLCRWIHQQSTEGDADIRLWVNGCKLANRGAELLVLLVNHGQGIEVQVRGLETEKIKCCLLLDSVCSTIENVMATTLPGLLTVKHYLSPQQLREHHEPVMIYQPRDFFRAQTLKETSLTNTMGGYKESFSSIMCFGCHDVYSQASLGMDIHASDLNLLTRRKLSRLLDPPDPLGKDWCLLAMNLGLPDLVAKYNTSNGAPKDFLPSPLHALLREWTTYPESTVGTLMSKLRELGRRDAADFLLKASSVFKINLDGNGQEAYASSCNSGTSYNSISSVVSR
Ankyrin repeat and protein kinase domain-containing protein 1 (Homo sapiens), sequence (Q8NFD2 whole entry, the tested form may be a part): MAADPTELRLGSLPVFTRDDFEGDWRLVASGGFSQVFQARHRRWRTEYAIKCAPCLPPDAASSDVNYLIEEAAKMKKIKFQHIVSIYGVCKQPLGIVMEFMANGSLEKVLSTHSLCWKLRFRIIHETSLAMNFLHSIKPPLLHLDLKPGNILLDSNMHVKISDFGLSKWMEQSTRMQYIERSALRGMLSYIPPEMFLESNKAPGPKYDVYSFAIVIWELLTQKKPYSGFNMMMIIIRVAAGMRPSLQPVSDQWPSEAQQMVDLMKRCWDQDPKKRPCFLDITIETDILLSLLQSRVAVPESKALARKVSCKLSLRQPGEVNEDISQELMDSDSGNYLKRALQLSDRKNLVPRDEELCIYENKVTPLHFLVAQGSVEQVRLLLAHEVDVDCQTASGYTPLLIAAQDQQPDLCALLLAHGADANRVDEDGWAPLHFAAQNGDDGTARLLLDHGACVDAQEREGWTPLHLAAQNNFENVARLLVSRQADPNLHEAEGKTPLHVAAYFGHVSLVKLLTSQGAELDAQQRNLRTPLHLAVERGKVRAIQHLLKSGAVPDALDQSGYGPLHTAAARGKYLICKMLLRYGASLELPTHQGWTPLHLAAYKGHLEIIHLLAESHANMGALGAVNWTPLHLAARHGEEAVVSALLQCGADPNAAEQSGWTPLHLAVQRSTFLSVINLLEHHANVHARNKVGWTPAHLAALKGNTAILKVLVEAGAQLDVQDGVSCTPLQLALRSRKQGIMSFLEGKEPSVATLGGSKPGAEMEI

CN(C)C(=O)Cn1cc(-c2nc(C3(c4ccc(-c5cnc(N)nc5)cc4)CC3)no2)cn1 [BI 0153]
inactive: residual activity [1] 98% | residual activity [2] 100% | residual activity [3] 81% | residual activity [4] 74% | residual activity [5] 83% | residual activity [6] 100% | residual activity [7] 92% | residual activity [8] 97% | inhibition [9] 9.74%

CN(C)C(=O)Cn1cc(-c2nc([C@@](C)(c3ccc(-c4cnc(N)nc4)cc3)C3CC3)no2)cn1 [BI 665915]
inactive: residual activity [1] 76% | residual activity [2] 82% | residual activity [3] 81% | residual activity [4] 100% | residual activity [5] 97% | residual activity [6] 100% | residual activity [7] 99% | residual activity [8] 77% | inhibition [9] 0.496%
